Results as given in patent US20100040544A1, “METHOD FOR MANAGING PATIENTS WITH CANCER” (priority 2006, published 2010).

Assay: T1 relaxation in human full blood
Assay type: physicochemical
Conditions: in human full blood at 37° C.

- T1 relaxation: about 42 s
SMILES: CC(=O)[13C](=O)O [^13C1-pyruvate]
